Patent US20230405003A1, “APPLICATION OF THYMIDINE DERIVATIVE IN PREPARATION OF DRUGS” (ONQUALITY PHARMACEUTICALS CHINA LTD., priority 2020, published 2023)

What was measured:
HaCaT cells = assay: Relief of 5-FU proliferative toxicity to HaCaT cells (CCK-8 cell survival); assay type: cell-based; details: for Cell Survival Rate (increased percentage of cell survival compared with the Group of 5-FU): 5-Fu 20 μM, HaCaT cells; for activation at 1 µM: compound 1 μM; for activation at 10 µM: compound 10 μM; for activation at 100 µM: compound 100 μM; for activation at 500 µM: compound 500 μM; for activation at 1000 µM: compound 1000 μM
In short: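 HaCaT keratinocytes (5000–10000/well) cultured 24 h, then exposed 48 h to 5-FU alone or with thymidine derivative, or thymidine plus uridine derivative mix, versus solvent-matched blanks. Survival by CCK-8; value is % increase in survival over 5-FU alone, t-test.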

[1] = test system: 5-FU-induced diarrhea in Balb/c mice; assay: 5-FU-induced diarrhea mouse model (175 mg/kg single i.p.); assay type: in vivo; details: 5-FU 175 mg/kg single i.p.; for Survival Rate / Average Diarrhea Grade: 6 days; for Average Diarrhea Grade: score 0-4
Description: 7-8-week-old male Balb/c mice were used to establish a 5-FU induced diarrhea model to test the effect of the thymidine derivative or the combination of thymidine derivative and uridine derivative on the relief of diarrhea.
Modeling dose of 5-Fu: 175 mg/kg; single administration, intraperitoneal injection (ip.);
Administration mode of the compound to test (thymidine derivative or combination of thymidine derivative and uridine derivative): single administration, by gavage, advance administration of the compound to test at various time points prior to intraperitoneal injection of 5-FU. The compound to test was administered 1 h prior to the administration of 5-FU, a certain amount of 5-FU was injected intraperitoneally 1 h later, and the compound to test was administered once again 7 h after the injection of 5-FU.
The mice were fed and adapted for one week, and then divided into groups, with 10 mice in each group for administration test.
The mice in the Group of blank was injected with 0.9% NaCl, and evaluated the effect by observing the change of diarrhea grade, food uptake, and weight change. The severity of diarrhea was scored in accordance with the following standards: 0: normal feces, 1: soft feces, 2: slightly wet, soft feces, 3: wet, unformed feces, with moderate coloration in perianal region, 4: watery feces with heavy coloration of hair in perianal region. The severity of diarrhea was evaluated by occurrence scores of various grades of diarrhea (Scores 0 to 4) and average score of diarrhea. […] The models were stable, and satisfied the experimental requirements.
5-FU was dissolved in a 0.9% NaCl solution, the mice in the model group and the treatment group were all i.p. injected at a dose of 175 mg/kg/d, […]. While modeling of injection administration of 5-FU, the thymidine derivative or the combination of thymidine derivative and uridine derivative was administered by gavage, and the compounds to test were dissolved in a PBS solution containing 5% DMSO+1% HPMC. Body weight was weighed daily to count the weight change (Δ % BW, the weight changes recorded in the table were the values on Day 6), and the food was weighed daily to calculate the food uptake. The mice were daily observed for their clinical status, e.g., activity, diarrhea, hair, fighting, etc. After 6 days, the experiments were completed and statistically analyzed for the results.

[2] = Homo sapiens, HaCaT, increase vs Group of 5-FU, 5-FU 20 μM, 48 h, read-out: Cell Survival Rate
[3] = selected compound final concentration 3.13 μM
[4] = selected compound final concentration 6.25 μM
[5] = selected compound final concentration 12.5 μM
[6] = selected compound final concentration 25 μM
[7] = selected compound final concentration 50 μM
[8] = selected compound final concentration 1.6 μM
[9] = selected compound final concentration 0.8 μM

Row | SMILES | activation at 10 µM (HaCaT cells; [2]) [%] | activation at 100 µM (HaCaT cells; [2]) [%] | activation at 500 µM (HaCaT cells; [2]) [%] | activation at 1000 µM (HaCaT cells; [2]) [%] | Cell Survival Rate (increased percentage of cell survival compared with the Group of 5-FU) (HaCaT cells; [3]) | Cell Survival Rate (increased percentage of cell survival compared with the Group of 5-FU) (HaCaT cells; [4]) | Cell Survival Rate (increased percentage of cell survival compared with the Group of 5-FU) (HaCaT cells; [5]) | Cell Survival Rate (increased percentage of cell survival compared with the Group of 5-FU) (HaCaT cells; [6]) | Cell Survival Rate (increased percentage of cell survival compared with the Group of 5-FU) (HaCaT cells; [7]) | Cell Survival Rate (increased percentage of cell survival compared with the Group of 5-FU) (HaCaT cells; [8]) | other results
1 | Cc1cn([C@H]2C[C@H](OC(=O)C(C)c3cccc(C(=O)c4ccccc4)c3)[C@@H](CO)O2)c(=O)[nH]c1=O (stereo partly drawn) [T50] |  |  |  |  |  |  |  |  |  |  | Cell Survival Rate (increased percentage of cell survival compared with the Group of 5-FU) (HaCaT cells; selected compound final concentration 2 μM): 13%-20%; Cell Survival Rate (increased percentage of cell survival compared with the Group of 5-FU) (HaCaT cells; selected compound final concentration 4 μM): 26%-33%; Cell Survival Rate (increased percentage of cell survival compared with the Group of 5-FU) (HaCaT cells; selected compound final concentration 8 μM): 36%-43%; Cell Survival Rate (increased percentage of cell survival compared with the Group of 5-FU) (HaCaT cells; selected compound final concentration 16 μM): 47%-53%; Cell Survival Rate (increased percentage of cell survival compared with the Group of 5-FU) (HaCaT cells; selected compound final concentration 32 μM): 68%-76%; Cell Survival Rate (increased percentage of cell survival compared with the Group of 5-FU) (HaCaT cells; selected compound final concentration 62.5 μM): 74%-82%; Cell Survival Rate (increased percentage of cell survival compared with the Group of 5-FU) (HaCaT cells; selected compound final concentration 125 μM): 75%-85%; Cell Survival Rate (increased percentage of cell survival compared with the Group of 5-FU) (HaCaT cells; selected compound final concentration 250 μM): 75%-82%; Cell Survival Rate (increased percentage of cell survival compared with the Group of 5-FU) (HaCaT cells; selected compound final concentration 500 μM): 65%-73%; Cell Survival Rate (increased percentage of cell survival compared with the Group of 5-FU) (HaCaT cells; selected compound final concentration 1000 μM): 58%-65%; Δ % BW (on Day 6) ([1]; 50 mpk gavage): 2.08% ± 0.86%; Survival Rate ([1]; 50 mpk gavage): 100%; Average Diarrhea Grade ([1]; 50 mpk gavage): 1.1
2 | CC(=O)OC[C@H]1O[C@@H](n2cc(C)c(=O)[nH]c2=O)C[C@@H]1O [T3] | 30 to 38 | 80 to 86 | 69 to 75 | 58 to 65 |  |  |  |  |  |  | activation at 1 µM (HaCaT cells; [2]): 13 to 18%
3 | CC(=O)O[C@H]1C[C@H](n2cc(C)c(=O)[nH]c2=O)O[C@@H]1CO [T2] | 35 to 45 | 70 to 80 | 75 to 85 | 60 to 70 |  |  |  |  |  |  | activation at 1 µM (HaCaT cells; [2]): 14 to 18%
4 | Cc1cn([C@H]2C[C@H](O)[C@@H](COC(=O)[C@H](C)c3ccc(CC(C)C)cc3)O2)c(=O)[nH]c1=O [T32] |  |  |  |  | 35%-41% | 29%-36% | 46%-52% | 53%-60% | 59%-66% |  | Cell Survival Rate (increased percentage of cell survival compared with the Group of 5-FU) (HaCaT cells; selected compound final concentration 100 μM): 78%-85%
5 | CC(=O)OCC1OC(n2cc(C)c(=O)[nH]c2=O)CC1OC(C)=O (stereo not drawn) [T1] | 10 to 16 | 31 to 37 | 36 to 41 | 35 to 42 |  |  |  |  |  |  | activation at 5 µM (HaCaT cells; Homo sapiens, HaCaT, increase vs Group of 5-FU, 5-FU 20 μM, compound 5 μM, 48 h, read-out: Cell Survival Rate): 1 to 6%; activation at 50 µM (HaCaT cells; Homo sapiens, HaCaT, increase vs Group of 5-FU, 5-FU 20 μM, compound 50 μM, 48 h, read-out: Cell Survival Rate): 21 to 26%; activation at 200 µM (HaCaT cells; Homo sapiens, HaCaT, increase vs Group of 5-FU, 5-FU 20 μM, compound 200 μM, 48 h, read-out: Cell Survival Rate): 42 to 48%; activation at 1500 µM (HaCaT cells; Homo sapiens, HaCaT, increase vs Group of 5-FU, 5-FU 20 μM, compound 1500 μM, 48 h, read-out: Cell Survival Rate): 29 to 33%; activation at 3000 µM (HaCaT cells; Homo sapiens, HaCaT, increase vs Group of 5-FU, 5-FU 20 μM, compound 3000 μM, 48 h, read-out: Cell Survival Rate): 17 to 23%
6 | Cc1cn([C@H]2C[C@H](O)[C@@H](COC(=O)C(C)c3cccc(Oc4ccccc4)c3)O2)c(=O)[nH]c1=O (stereo partly drawn) [T27, ((2R,3S, 5R)-3-hydroxyl-5-(5-methyl-2,4-dioxy-3,4-dihydropyrimidin-1(2H)-yl)tetrahydrofuran-2-yl)2-(3-phenoxyphenyl)propionate Methyl] |  |  |  |  | 51%-58% | 54%-61% | 51%-59% | 49%-57% | 46%-53% | 39%-45% | 
7 | Cc1ccc(C(=O)c2ccc(CC(=O)OC[C@H]3O[C@@H](n4cc(C)c(=O)[nH]c4=O)C[C@@H]3O)n2C)cc1 [T36] |  |  |  |  | 27%-35% | 38%-46% | 52%-60% | 53%-61% | 49%-57% |  | Δ % BW (on Day 6) ([1]; 50 mpk gavage): 2.25% ± 0.54%; Survival Rate ([1]; 50 mpk gavage): 100%; Average Diarrhea Grade ([1]; 50 mpk gavage): 1.6
8 | CC1=C(CC(=O)OC[C@H]2O[C@@H](n3cc(C)c(=O)[nH]c3=O)C[C@@H]2O)c2cc(F)ccc2/C1=C\c1ccc([S+](C)[O-])cc1 (stereo partly drawn) [T40] |  |  |  |  | 45%-52% | 47%-56% | 49%-54% | 58%-65% | 48%-55% | 57%-65% | Cell Survival Rate (increased percentage of cell survival compared with the Group of 5-FU) (HaCaT cells; [9]): 42%-50%
9 | Cc1ccc(C(=O)c2ccc(CC(=O)O[C@H]3C[C@H](n4cc(C)c(=O)[nH]c4=O)O[C@@H]3CO)n2C)cc1 [T45] |  |  |  |  | 63%-70% | 59%-67% | 48%-55% | 44%-51% | 39%-46% | 39%-46% | Cell Survival Rate (increased percentage of cell survival compared with the Group of 5-FU) (HaCaT cells; [9]): 34%-41%; Δ % BW (on Day 6) ([1]; 15 mpk gavage): −0.34% ± 0.36%; Survival Rate ([1]; 15 mpk gavage): 100%; Average Diarrhea Grade ([1]; 15 mpk gavage): 1.4
